One test deals with T1, Human GPR120 short form (Homo sapiens, UniProt Q5NUL3).
T1 construct: expressed in transfected cells
T1 sequence (Q5NUL3 1-361): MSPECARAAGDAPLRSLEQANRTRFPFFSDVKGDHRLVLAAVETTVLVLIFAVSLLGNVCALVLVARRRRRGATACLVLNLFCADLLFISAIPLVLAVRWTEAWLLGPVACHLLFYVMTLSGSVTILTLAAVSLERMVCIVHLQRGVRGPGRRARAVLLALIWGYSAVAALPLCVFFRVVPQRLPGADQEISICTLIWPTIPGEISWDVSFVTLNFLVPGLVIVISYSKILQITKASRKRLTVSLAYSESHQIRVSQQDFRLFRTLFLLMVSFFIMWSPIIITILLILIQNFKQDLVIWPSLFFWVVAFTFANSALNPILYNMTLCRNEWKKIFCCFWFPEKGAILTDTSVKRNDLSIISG
Nature of the test: Human GPR120 calcium flux assay, Procedure Calcium B (4200 cells/well). It is filed as cell-based. The gist of the method: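 Agonist EC50 came from a four-parameter fit of RFU (Fmax−Fmin) read over 300 s on FLIPR. Cells were HEK293 stably transfected with human GPR120 (NM_001195755.1) at 4200 per well, serum-starved 1 h and loaded with Fluo-4 NW dye with probenecid before ligand addition.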

A further test has as its target T2, human GPR40 (Homo sapiens, UniProt O14842).
T2 construct: expressed in transfected cells
Nature of the test: GPR40 calcium flux assay, human GPR40. As to conditions: HEK293 cells stably expressing GPR40; table does not say human or rat. Type of test: cell-based. The procedure, abridged:
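Cells preincubated 1 h at 37° C. in HBSS, 20 mM HEPES, 0.1% BSA, then Fluo 8 calcium dye 30 min at 37° C. and 15 min at room temperature.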

T2 sequence (O14842 whole entry): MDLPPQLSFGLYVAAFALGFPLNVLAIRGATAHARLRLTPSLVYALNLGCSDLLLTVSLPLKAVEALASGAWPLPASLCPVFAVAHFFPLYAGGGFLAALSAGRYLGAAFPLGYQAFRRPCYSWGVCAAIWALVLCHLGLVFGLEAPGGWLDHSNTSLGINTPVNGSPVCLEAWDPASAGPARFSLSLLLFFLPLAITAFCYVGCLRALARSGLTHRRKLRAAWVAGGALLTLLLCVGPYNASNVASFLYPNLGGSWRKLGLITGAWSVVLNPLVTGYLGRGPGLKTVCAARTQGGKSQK

`COc1ccc(C2=C(COc3cc(C)c(CCC(=O)O)cc3F)CCC2)c(C)c1` [Compound 278, 3-[5-fluoro-4-[[2-(4-methoxy-2-methyl-phenyl)cyclopenten-1-yl]methoxy]-2-methyl-phenyl]Propanoic Acid]: the EC50 was more than 5 µM on Human GPR120 short form and 0.302 µM on human GPR40.

In the case of `COc1ccc(C2=C(COc3cc(C)c(CCC(=O)O)cc3F)CCC2)cc1` [Compound 279, 3-[5-fluoro-4-[[2-(4-methoxyphenyl)cyclopenten-1-yl]methoxy]-2-methyl-phenyl]Propanoic Acid], the results for the EC50 on Human GPR120 short form and at human GPR40 were 0.495 µM and 3.52 µM, respectively.

As for `Cc1cc(OCC2=C(c3ccc(Cl)c(F)c3)CCC2)c(F)cc1CCC(=O)O` [Compound 280, 3-[4-[[2-(4-chloro-3-fluoro-phenyl)cyclopenten-1-yl]methoxy]-5-fluoro-2-methyl-phenyl]Propanoic Acid], the values for the EC50 at Human GPR120 short form and at human GPR40 were 0.346 µM and 0.471 µM, respectively.

`Cc1cc(OCC2=C(c3ccc(Cl)cc3F)CCC2)c(F)cc1CCC(=O)O` [Compound 281, 3-[4-[[2-(4-chloro-2-fluoro-phenyl)cyclopenten-1-yl]methoxy]-5-fluoro-2-methyl-phenyl]Propanoic Acid]: the EC50 at Human GPR120 short form worked out at 0.314 µM; at human GPR40, 0.474 µM.

With `Cc1ccc(C2=C(COc3ccc(CCC(=O)O)c(C(F)(F)F)c3)CCC2)cc1F` [Compound 282, 3-[4-[[2-(3-fluoro-4-methyl-phenyl)cyclopenten-1-yl]methoxy]-2-(trifluoromethyl)phenyl]Propanoic Acid], the EC50 on Human GPR120 short form came to 0.192 µM; at human GPR40 it was 0.247 µM.

On to `Cc1ccc(C2=C(COc3ccc(CCC(=O)O)c(C(F)(F)F)c3)CCC2)c(F)c1` [Compound 283, 3-[4-[[2-(2-fluoro-4-methyl-phenyl)cyclopenten-1-yl]methoxy]-2-(trifluoromethyl)phenyl]Propanoic Acid], for which the values for the EC50 at Human GPR120 short form and at human GPR40 were 0.236 µM and 0.355 µM, respectively.

`O=C(O)CCc1ccc(OCC2=C(c3ccc(Cl)c(F)c3)CCC2)cc1C(F)(F)F` [Compound 284, 3-[4-[[2-(4-chloro-3-fluoro-phenyl)cyclopenten-1-yl]methoxy]-2-(trifluoromethyl)phenyl]Propanoic Acid]: the EC50 at Human GPR120 short form worked out at 0.442 µM; on human GPR40, 0.101 µM.

Take `O=C(O)CCc1ccc(OCC2=C(c3ccc(Cl)cc3F)CCC2)cc1C(F)(F)F` [Compound 285, 3-[4-[[2-(4-chloro-2-fluoro-phenyl)cyclopenten-1-yl]methoxy]-2-(trifluoromethyl)phenyl]Propanoic Acid]: the EC50 at Human GPR120 short form amounted to 0.328 µM; at human GPR40 it was 0.108 µM.

As for `Cc1cc(OCC2=C(c3ccc(Cl)cc3C)CCC2)c(F)cc1CCC(=O)O` [Compound 286, 3-[4-[[2-(4-chloro-2-methyl-phenyl)cyclopenten-1-yl]methoxy]-5-fluoro-2-methyl-phenyl]Propanoic Acid], the results for the EC50 on Human GPR120 short form and on human GPR40 were 2.9 µM and 0.245 µM, respectively.

In the case of `COc1ccc(C2=C(COc3ccc(CCC(=O)O)c(C(F)(F)F)c3)CCC2)c(C)c1` [Compound 287, 3-[4-[[2-(4-methoxy-2-methyl-phenyl)cyclopenten-1-yl]methoxy]-2-(trifluoromethyl)phenyl]Propanoic Acid], the EC50 is more than 5 µM on Human GPR120 short form and 0.153 µM on human GPR40.

Take `COc1ccc(C2=C(COc3ccc(CCC(=O)O)c(Cl)c3)CCC2)cc1` [Compound 288, 3-[2-chloro-4-[[2-(4-methoxyphenyl)cyclopenten-1-yl]methoxy]phenyl]Propanoic Acid]: the EC50 was 0.847 µM at Human GPR120 short form and 1.08 µM at human GPR40.

Take `Cc1cc(OCC2=C(c3ccc(Cl)cc3)CCC2)c(F)cc1CCC(=O)O` [Compound 289, 3-[4-[[2-(4-chlorophenyl)cyclopenten-1-yl]methoxy]-5-fluoro-2-methyl-phenyl]Propanoic Acid]: the EC50 on Human GPR120 short form came to 0.219 µM; at human GPR40, 1.01 µM.

With `CCc1ccc(C2=C(COc3cc(C)c(CCC(=O)O)cc3F)CCC2)cc1` [Compound 290, 3-[4-[[2-(4-ethylphenyl)cyclopenten-1-yl]methoxy]-5-fluoro-2-methyl-phenyl]Propanoic Acid], the EC50 at Human GPR120 short form is 0.418 µM; on human GPR40, more than 5 µM.

For the compound `Cc1ccc(C2=C(COc3ccc(CCC(=O)O)c(C(F)(F)F)c3)CCC2)c(-c2ccccc2)c1` [Compound 291, 3-[4-[[2-(4-methyl-2-phenyl-phenyl)cyclopenten-1-yl]methoxy]-2-(trifluoromethyl)phenyl]Propanoic Acid], the EC50 was more than 5 µM on Human GPR120 short form and 1.42 µM at human GPR40.

For the compound `Cc1ccc(C2=C(COc3ccc(CCC(=O)O)c(C(F)(F)F)c3)CCC2)cc1-c1ccccc1` [Compound 292, 3-[4-[[2-(4-methyl-3-phenyl-phenyl)cyclopenten-1-yl]methoxy]-2-(trifluoromethyl)phenyl]Propanoic Acid], the results for the half-maximal effective concentration (EC50) on Human GPR120 short form and on human GPR40 were more than 5 µM and 1.72 µM, respectively.

Turning to `CCc1ccc(C2=C(COc3ccc(CCC(=O)O)c(Cl)c3)CCC2)cc1` [Compound 293, 3-[2-chloro-4-[[2-(4-ethylphenyl)cyclopenten-1-yl]methoxy]phenyl]Propanoic Acid], the EC50 at Human GPR120 short form was 2.18 µM; at human GPR40, 4.24 µM.

On to `CCc1ccc(C2=C(COc3ccc(CCC(=O)O)c(C(F)(F)F)c3)CCC2)cc1` [Compound 294, 3-[4-[[2-(4-ethylphenyl)cyclopenten-1-yl]methoxy]-2-(trifluoromethyl)phenyl]Propanoic Acid], for which the EC50 at Human GPR120 short form is more than 5 µM; on human GPR40, 3.51 µM.

For `O=C(O)CCc1ccc(OCC2=C(c3ccccc3Cl)CCC2)cc1Cl` [Compound 295, 3-[2-chloro-4-[[2-(2-chlorophenyl)cyclopenten-1-yl]methoxy]phenyl]Propanoic Acid], the values for the EC50 at Human GPR120 short form and at human GPR40 were 1.65 µM and 0.234 µM, respectively.

Take `Cc1ccc(C2=C(COc3ccc(CCC(=O)O)c(Cl)c3)CCC2)cc1F` [Compound 296, 3-[2-chloro-4-[[2-(3-fluoro-4-methyl-phenyl)cyclopenten-1-yl]methoxy]phenyl]Propanoic Acid]: the EC50 was 0.157 µM at Human GPR120 short form and 1.07 µM at human GPR40.

`O=C(O)CCc1ccc(OCC2=C(c3cccc(F)c3)CCC2)cc1Cl` [Compound 297, 3-[2-chloro-4-[[2-(3-fluorophenyl)cyclopenten-1-yl]methoxy]phenyl]Propanoic Acid]: the values for the EC50 on Human GPR120 short form and on human GPR40 were 0.422 µM and 0.588 µM, respectively.

In the case of `Cc1cccc(C2=C(COc3ccc(CCC(=O)O)c(Cl)c3)CCC2)c1` [Compound 298, 3-[2-chloro-4-[[2-(m-tolyl)cyclopenten-1-yl]methoxy]phenyl]Propanoic Acid], the EC50 was determined as 1.63 µM on Human GPR120 short form and 1.59 µM at human GPR40.

Turning to `Cc1cc(OCC2=C(c3ccc(Br)cc3)CCC2)c(F)cc1CCC(=O)O` [Compound 299, 3-[4-[[2-(4-bromophenyl)cyclopenten-1-yl]methoxy]-5-fluoro-2-methyl-phenyl]Propanoic Acid], the EC50 came out at 0.251 µM at Human GPR120 short form and 0.661 µM at human GPR40.

On to `O=C(O)CCc1ccc(OCC2=C(c3ccc(C(F)(F)F)cc3)CCC2)cc1C(F)(F)F` [Compound 300, 3-[2-(trifluoromethyl)-4-[[2-[4-(trifluoromethyl)phenyl]cyclopenten-1-yl]methoxy]phenyl]Propanoic Acid], for which the figures for the EC50 on Human GPR120 short form and on human GPR40 were 1.55 µM and 0.197 µM, respectively.

Consider `COc1ccc(C2=C(COc3ccc(CCC(=O)O)c(C(F)(F)F)c3)CCC2)cc1` [Compound 301, 3-[4-[[2-(4-methoxyphenyl)cyclopenten-1-yl]methoxy]-2-(trifluoromethyl)phenyl]Propanoic Acid], for which the results for the EC50 on Human GPR120 short form and at human GPR40 were 1.53 µM and 0.448 µM, respectively.

For `[2H]C([2H])([2H])c1ccc(C2=C(COc3ccc(CCC(=O)O)c(Cl)c3)CCC2)cc1` [Compound 302-D, 3-[2-chloro-4-[[2-[4-(trideuteriomethyl)phenyl]cyclopenten-1-yl]methoxy]phenyl]Propanoic Acid], the EC50 on Human GPR120 short form was determined as 0.16 µM; at human GPR40 it was 0.952 µM.

Regarding `[2H]C([2H])([2H])c1ccc(C2=C(COc3cc(C)c(CCC(=O)O)cc3F)CCC2)cc1` [Compound 303-D, 3-[5-fluoro-2-methyl-4-[[2-[4-(trideuteriomethyl)phenyl]cyclopenten-1-yl]methoxy]phenyl]Propanoic Acid], the figures for the EC50 at Human GPR120 short form and at human GPR40 were 0.124 µM and 2.37 µM, respectively.

`Cc1cc(OCC2=C(c3ccc(F)cc3)CCC2)c(F)cc1CCC(=O)O` [Compound 304, 3-[5-fluoro-4-[[2-(4-fluorophenyl)cyclopenten-1-yl]methoxy]-2-methyl-phenyl]Propanoic Acid]: the figures for the EC50 at Human GPR120 short form and at human GPR40 were 0.502 µM and 1.11 µM, respectively.

Take `CC1CCC(COc2ccc(CCC(=O)O)c(C(F)(F)F)c2)=C1c1ccccc1` (stereo not shown) [Compound 306, 3-[4-[(3-methyl-2-phenyl-cyclopenten-1-yl)methoxy]-2-(trifluoromethyl)phenyl]Propanoic Acid]: the EC50 on Human GPR120 short form turned out to be 1.12 µM; on human GPR40, 0.347 µM.

Regarding `Cc1ccc(C2=C(COc3ccc(CCC(=O)O)c(C(F)(F)F)c3)CCC2)cc1` [Compound 307, 3-[4-[[2-(p-tolyl)cyclopenten-1-yl]methoxy]-2-(trifluoromethyl)phenyl]Propanoic Acid], the figures for the concentration for a half-maximal effect (EC50) on Human GPR120 short form and at human GPR40 were 0.288 µM and 0.516 µM, respectively.

Source of the values: patent US11230526B1, “Cylcoalkenyl derivatives useful as agonists of the GPR120 and/or GPR40 receptors” (Janssen Pharmaceutica NV, priority 2018, dated 2022).
